US20250367160A1, “USE OF GUAIJAVERIN IN PREPARATION OF EYE PROTECTION PRODUCT” (Innovation Center of Yangtze River Delta, ZJU, priority 2024, published 2025)

How the values were obtained:
Wild-type AB zebrafish = experiment: Determination of maximum test concentration (MTC) in zebrafish blue light eye damage model; format: in vivo; settings: 28° C.; for Death count / Development status (phenotype) / Mortality: aqueous, n = 30
Description: Wild-type AB zebrafish at 1 day post-fertilization (1 dpf) were randomly selected and irradiated with blue light after membrane rupture to establish the zebrafish blue light eye damage model. Model zebrafish with desirable development status were selected at 3 dpf and randomly distributed in 6-well plates, with 30 zebrafish in each well (experimental group) were treated. Different concentrations of guaijaverin (concentrations shown in Table 1) were administered aqueously, and a normal control group and a model group were set up, where a volume of each well was 3 mL. After treatment at 28° C. for 1 d, the MTC of guaijaverin on model zebrafish was determined.

[1] = system: ocular apoptotic cells of the zebrafish; experiment: Anti-blue light eye protection efficacy, AO staining of ocular apoptotic cells in zebrafish blue light eye damage model; format: in vivo; settings: for Fluorescence intensity of ocular apoptotic cells (pixel, mean ± SE): aqueous, 28° C., 1 d, n = 10, model group 45833 ± 4825, normal control 12203 ± 1124
Description: Wild-type AB zebrafish at 1 dpf were randomly selected and irradiated with blue light after membrane rupture to establish the zebrafish blue light eye damage model. Model zebrafish with desirable development status were selected at 3 dpf and randomly distributed in 6-well plates, with 30 zebrafish in each well (experimental group) were treated. Different concentrations of guaijaverin (see Table 2 for concentrations) were administered aqueously, and lutein at a concentration of 62.5 μg/mL were used as a positive control, while a normal control group and a model group were also set up, with a volume of 3 mL per well. After 1 d of treatment at 28° C., the zebrafish in each experimental group were stained with AO in the dark for 30 min and washed 3 times with standard dilution water. 10 zebrafish were randomly selected from each experimental group and photographed under a fluorescence microscope. The data were analyzed and collected using Image J software. The fluorescence intensity of ocular apoptotic cells of the zebrafish was statistically analyzed. The anti-blue light eye protection efficacy of guaijaverin was evaluated based on the statistical analysis results of the above indicators. The statistical result was expressed as mean±SE.

[2] = system: Heme Oxygenase-1 (HO-1 protein); experiment: Mouse retinal optical damage model, Western blot of HO-1 protein in retina; format: in vivo, BALB/c mice; settings: high-dose 100 mg/kg, gavage once a day 10 days, vs model group, FIG. 9
Description: A self-made light box with a length of 108 cm, a width of 50 cm, and a height of 72 cm was used, and the light intensity was measured by a light meter to be 8,500-10,000 Lux. After eye examination, 60 mice with normal eyeballs were selected and randomly divided into a control group, a model group, a lutein group (100 mg/kg), a guaijaverin low-dose group (50 mg/kg), and a guaijaverin high-dose group (100 mg/kg), with 12 mice in each group. Lutein and guaijaverin were suspended in 5% sodium carboxymethylcellulose (CMC-Na) solution and administered by gavage once a day. The mice in the control and model groups were administered by gavage with an equal volume of 5% CMC-Na for 10 consecutive days. […]
The mouse retina was taken, and 100-150 μL of RIPA lysis buffer was added for every 10 mg of tissue. After sufficient lysis, the protein content was detected using a BCA protein quantification kit. […] The bands were analyzed by the supporting software of the red laser two-color imaging system, with GAPDH protein expression as an internal reference.

mouse retina = experiment: Mouse retinal optical damage model, H&E histopathological evaluation of retina; format: in vivo, BALB/c mice; settings: for morphology and thickness of the outer nuclear layer retina and inner nuclear layer retina (H&E): gavage once a day 10 days, vs model group, FIG. 5
Description: A self-made light box with a length of 108 cm, a width of 50 cm, and a height of 72 cm was used, and the light intensity was measured by a light meter to be 8,500-10,000 Lux. After eye examination, 60 mice with normal eyeballs were selected and randomly divided into a control group, a model group, a lutein group (100 mg/kg), a guaijaverin low-dose group (50 mg/kg), and a guaijaverin high-dose group (100 mg/kg), with 12 mice in each group. Lutein and guaijaverin were suspended in 5% sodium carboxymethylcellulose (CMC-Na) solution and administered by gavage once a day. The mice in the control and model groups were administered by gavage with an equal volume of 5% CMC-Na for 10 consecutive days. 10 days later, the mice in the model group, lutein group, guaijaverin low-dose group, and guaijaverin high-dose group were kept in the dark for 36 h, atropine eye gel was applied to both eyes of the mice to induce pupil dilation, and the mice were placed in the self-made lighting device of 8,000-10,000 Lux (the control group was raised in a normal environment) and given continuous light for 24 h. After the light exposure, the mice in each group had their eyeballs removed to draw blood and eyeball tissue collected for subsequent experimental tests.
Eyeball tissues of 6 mice were collected from each group for Hematoxylin-eosin staining (H&E) and TUNEL fluorescence staining of apoptotic cells, and the pathological changes of mouse eyeball tissues were observed using an optical microscope (completed by Wuhan Servicebio Biotechnology Co., Ltd.).
a) Dewaxing of paraffin sections to water: the sections were sequentially placed in environmental-friendly dewaxing solution I for 20 min, environmental-friendly dewaxing solution II for 20 min, anhydrous ethanol I for 5 min, anhydrous ethanol II for 5 min, and 75% alcohol for 5 min, and then wash with tap water.
b) Pretreatment: the sections were placed into H&E high-definition constant staining pretreatment solution for 1 min. […]
f) The sections were examined under a microscope and the images were collected and analyzed.

`O=c1c(O[C@@H]2OC[C@H](O)[C@H](O)[C@H]2O)c(-c2ccc(O)c(O)c2)oc2cc(O)cc(O)c12` [Guaijaverin, guaijaverin] was tested, and the Death count (Wild-type AB zebrafish; 125 μg/mL, 1 d) was 0 per fish, the “Development status (phenotype)” value (Wild-type AB zebrafish; 125 μg/mL, 1 d) was “Status similar to that of model” and the Mortality (Wild-type AB zebrafish; 125 μg/mL, 1 d) was 0%. For the same compound, the Death count (Wild-type AB zebrafish; 150 μg/mL, 1 d) was 0 per fish, the “Development status (phenotype)” value (Wild-type AB zebrafish; 150 μg/mL, 1 d) was “Status similar to that of model” and the Mortality (Wild-type AB zebrafish; 150 μg/mL, 1 d) was 0%. For the same compound, the Dissolution (Wild-type AB zebrafish; 200 μg/mL in fish water) was “Precipitated”, the Death count (Wild-type AB zebrafish; 200 μg/mL, 1 d) was 0 per fish and the “Development status (phenotype)” value (Wild-type AB zebrafish; 200 μg/mL, 1 d) was “Status similar to that of model”. For the same compound, the Mortality (Wild-type AB zebrafish; 200 μg/mL, 1 d) was 0%, the Dissolution (Wild-type AB zebrafish; 250 μg/mL in fish water) was “Precipitated” and the Death count (Wild-type AB zebrafish; 250 μg/mL, 1 d) was 0 per fish. For the same compound, the “Development status (phenotype)” value (Wild-type AB zebrafish; 250 μg/mL, 1 d) was “Status similar to that of model”, the Mortality (Wild-type AB zebrafish; 250 μg/mL, 1 d) was 0% and the Dissolution (Wild-type AB zebrafish; 500 μg/mL in fish water) was “Precipitated”. The Death count (Wild-type AB zebrafish; 500 μg/mL, 1 d) was 0 per fish, the “Development status (phenotype)” value (Wild-type AB zebrafish; 500 μg/mL, 1 d) was “Status similar to that of model” and the Mortality (Wild-type AB zebrafish; 500 μg/mL, 1 d) was 0%. The Dissolution (Wild-type AB zebrafish; 1000 μg/mL in fish water) was “Precipitated”, the Death count (Wild-type AB zebrafish; 1000 μg/mL, 1 d) was 0 per fish and the “Development status (phenotype)” value (Wild-type AB zebrafish; 1000 μg/mL, 1 d) was “Status similar to that of model”. For the same compound, the Mortality (Wild-type AB zebrafish; 1000 μg/mL, 1 d) was 0%, the Dissolution (Wild-type AB zebrafish; 2000 μg/mL in fish water) was “Precipitated” and the Death count (Wild-type AB zebrafish; 2000 μg/mL, 1 d) was 0 per fish. The “Development status (phenotype)” value (Wild-type AB zebrafish; 2000 μg/mL, 1 d) was “Status similar to that of model”, the Mortality (Wild-type AB zebrafish; 2000 μg/mL, 1 d) was 0% and the “MTC (maximum test concentration)” value (Wild-type AB zebrafish; model zebrafish, 1 d) was 150 µg/mL. The “Fluorescence intensity of ocular apoptotic cells (pixel, mean ± SE)” value (from here on “Fluorescence intensity … (pixel, mean ± SE)”) ([1]; 62.5 μg/mL) was 31471 ± 2353 pixel, the “eye protection effect against blue optical damage compared with lutein” value ([1]; 125 μg/mL vs lutein 62.5 μg/mL) was “same significant eye protection effect as lutein” and the “Fluorescence intensity … (pixel, mean ± SE)” value ([1]; 125 μg/mL) was 24765 ± 2077 pixel. For the same compound, the “eye protection effect against blue optical damage compared with lutein” value ([1]; 150 μg/mL vs lutein 62.5 μg/mL) was “more significant eye protection effect than lutein”, the “Fluorescence intensity … (pixel, mean ± SE)” value ([1]; 150 μg/mL) was 18149 ± 1688 pixel and the “expression of HO-1 protein in the retinal tissue” value [2] was “significantly reduced the expression of HO-1 protein”. The “anti-optical damage eye protection efficacy compared with lutein (H&E)” value (mouse retina; high-dose 100 mg/kg vs lutein 100 mg/kg) was “better anti-optical damage eye protection efficacy than lutein”, the “morphology and thickness of the outer nuclear layer retina and inner nuclear layer retina (H&E)” value (mouse retina; high-dose 100 mg/kg) was “increase the thickness of the outer nuclear layer retina and inner nuclear layer retina” and the “morphology and thickness of the outer nuclear layer retina and inner nuclear layer retina (H&E)” value (mouse retina; low-dose 50 mg/kg) was “increase the thickness of the outer nuclear layer retina and inner nuclear layer retina”.
